Laboratory results taken from patent US20070071725A1, “Nitric oxide synthase gene transfer” (priority 2002, published 2007).
“Also recorded” adds a separate entry of the source.

Columns and labels:
[1] = tested on: right double atrial preparations; assay: Heart rate (chronotropic) response of atrial preparations to carbachol; parameters: species or system rat
Experimental: Sutures (Ethicon, 5/0 mersilk) were placed at the lateral edges of both atria and the preparation was transferred to a pre-heated (37±0.1° C.) water-jacketed organ bath containing 100 ml of continuously oxygenated Tyrode's solution. The atria were vertically mounted with the suture in the left atrium connected to a stainless steel hook and the suture in the right atrium attached to an isometric force transducer (Harvard Apparatus, Model 60-2997, Mass. USA) connected to an amplifier. Heart rate was triggered from contraction and recorded in real time (Biopac MP100 with Acqknowledge software).
Preparations were equilibrated in Tyrode's solution for 60-90 minutes at 37° C. until a stable baseline heart rate was achieved. The right vagus was placed through a pair of custom-built platinum ring electrodes and stimulated at 3, 5, 7 and 10 Hz (15 V, 1 ms pulse duration; order of stimulations randomised) for 25 seconds, with an interval of at least 1 minute between successive stimulations. In some experiments vagal stimulation was repeated after application of the NO donor sodium nitroprusside (SNP; 20 μmol/L, 10 minutes incubation; Sigma). In addition, muscarinic responsiveness of atrial preparations was assessed using cumulative concentration-response curves to carbachol (0.1-0.5 μmol/L; Sigma; 2 minutes incubation at each concentration).

cGMP = cGMP efflux concentration in perfused right atrial preparation; parameters: species or system rat; conditions: 0.3 μmol/L, SHR vs WKY
Experimental: Isolated, perfused, beating atria were prepared by previously described method33,34. In brief, the right rat atrium was dissected from the heart after the animal was killed. A cannula containing 2 small catheters sealed within it was inserted into the atrium and secured by ligatures. The outer tip of the atrial cannula was open to allow for outflow. The cannulated atrium was transferred to a preheated (36.5 […]), continuously oxygenated, waterjacketed organ chamber, immediately perfused with oxygenated Tyrode's solution by means of a peristaltic pump (0.5 ml/min).
The atria were perfused for 60 minutes to stabilize. […]
The radioactivity of [^3H]inulin in atrial perfusate was measured with a liquid scintillation counter, and the amount of ECF translocated through the atrial wall was caculated, the amount of ECF translocated through the atrial wall was calculated as: ECF translocated (μl/min/g atrial wet wt)=total radioactivity in the perfusate (cpm/min)×1000/radioactivity in the pericardial reservoir (cpm/μl)×atrial wet wt (mg).
For measurement of cGMP concentration in perfusate, 500 μl of the perfusate was treated with trichloroacetic acid to a final concentration of 6% for 15 minutes at room temperature and centrifuged at 4° C. […] The amount of cGMP efflux was expressed as pmol cGMP/min/g atrial tissue. […]

isolated right atria = assay: Evoked [3H]NE release from isolated right atria of SHR and WKY five days after percutaneous gene transfer; parameters: species or system rat; conditions: 10 μmol/L
isolated atria = assay: [3H]ACh release from isolated atria on field stimulation; parameters: species or system rat; conditions: 10 μmol/L, 5 Hz field stimulation, WKY
Experimental: Animals were killed and the right atria removed as described above. The preparation was then transferred to a preheated (37 ??0.2 ?C), continuously oxygenated, water-jacketed organ bath containing 4 ml of Tyrode's solution where the atrium was pinned flat between two parallel silver stimulating electrodes 10 mm apart. […] After a 45 minutes equilibration period (where the Tyrode's solution was replaced every 15 minutes), the atrium was stimulated at 5 Hz (15V, 1 ms pulse duration) for one minute and then again after another minute to stimulate acetylcholine turnover. […]
Following the wash period superfusion was stopped and the bath solution replaced every 3 minutes with a 0.5 ml sample being taken on every change of solution. This sample was added to 4.5 ml of scintillation fluid (Ecoscint A, National Diagnostics) and the amount of radioactivity in each sample (disintegrations per minute) measured using a liquid scintillation counter (Tri-carb 2800TR, Packard). […] At the end of the experiment, the atrium was immersed overnight in Tyrode's solution containing 4 U/ml papain (Sigma) and the radioactivity contained in the extract determined. [3H] outflow was expressed as a percentage of the total radioactivity in the atrium at the end of the experiment and that released after superfusion.

isolated right atrium = tested on: isolated right atrium; parameters: species or system SD rat; conditions: 100 μM, Ad.PRS-nNOS treated atria, n=6

C[N+](C)(C)CCOC(N)=O [CCh, carbachol]
heart rate response, SHR compared to WKY ([1]; 0.1 μmol/L): significantly increased heart rate response in SHR compared to WKY
heart rate response, SHR compared to WKY ([1]; 0.2 μmol/L): No significantly changed
heart rate response, SHR compared to WKY ([1]; 0.5 μmol/L): significantly increased heart rate response in SHR compared to WKY
cGMP efflux concentration (cGMP): significantly increased cGMP efflux concentration in the SHR

O=c1onc2cnc3ccccc3n12 [ODQ, 1H-(1,2,4)oxadiazolo(4,3-a)quinoxaline-1-one]
effect on NE release (isolated right atria; Ad.PRS-eGFP treated SHR): did not effect
effect on NE release (isolated right atria; Ad.PRS-nNOS or Ad.PRS-eGFP treated WKY atria): significantly enhanced
effect on Ad.PRS-nNOS attenuation of NE release (isolated right atria; Ad.PRS-nNOS treated SHR): reversed
effect on [3H]ACh release (isolated atria): significantly enhanced

NC(=NCCC[C@H](N)C(=O)O)N[N+](=O)[O-] [L-NNA, Nω-Nitro-Larginine]
effect on Ad.PRS-nNOS-induced attenuation of NE release (isolated right atrium): prevented the Ad.PRS-nNOS-induced attenuation of NE release; also recorded: reverse this response
